14 compounds from PubChem BioAssay (NCI) can be followed below.

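Cultured in 96-well plates, cells were exposed to test compound for 48 hours across five concentrations. Here, GI50 denotes the concentration required for 50% inhibition of growth. Definition used: TGI = concentration required for complete inhibition of growth.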

Among the test systems are OVCAR-5 ovarian; M14 melanoma; SF-539 CNS; SK-OV-3 ovarian; A498 renal; RXF 393 renal; SNB-19 CNS; NCI-H226 lung; HS 578T breast.
Experiment in all cases: inhibition of tumour cell growth, NCI panel, 48 h

Turning to `CN(C)C(=O)Oc1c(-c2ccccc2)c(=O)n2c3ccccc3n3c(=O)n(C)c(=O)c1c23`, the TGI in the experiment on OVCAR-5 ovarian, in the experiment on M14 melanoma, with SF-539 CNS, in the experiment with SK-OV-3 ovarian, with A498 renal and with RXF 393 renal was more than 100 µM in each case. Further, the TGI in the experiment on SNB-19 CNS was more than 100 µM.
On to `COC(=O)c1nn(C(=N)c2ccc(Cl)cc2)c2c1CCC2`, for which the TGI in the experiment on OVCAR-5 ovarian, in the experiment on M14 melanoma, in the experiment with NCI-H226 lung, in the experiment on SF-539 CNS, in the experiment on SK-OV-3 ovarian and in the experiment on A498 renal was more than 100 µM each time. For the same compound, the TGI with RXF 393 renal and with SNB-19 CNS was more than 100 µM throughout.
On to `O=[N+]([O-])c1ccc(C=NC23CC4CC(CC(C4)C2)C3)cc1`, for which the TGI in the experiment on OVCAR-5 ovarian, in the experiment on M14 melanoma, in the experiment on NCI-H226 lung, in the experiment on SF-539 CNS, in the experiment on SK-OV-3 ovarian and in the experiment with A498 renal was more than 100 µM each time. The TGI with RXF 393 renal and in the experiment on SNB-19 CNS was more than 100 µM throughout.
With `Cc1ccc(C(=O)CC2=Nc3nnc(CCCCCCCc4nnc5n4C(=O)C(CC(=O)c4ccc(C)cc4)=N5)n3C2=O)cc1`, the TGI in the experiment on OVCAR-5 ovarian, in the experiment on M14 melanoma, in the experiment with NCI-H226 lung, in the experiment with SF-539 CNS, in the experiment on SK-OV-3 ovarian and in the experiment on RXF 393 renal was more than 100 µM each time. Besides, the TGI in the experiment on SNB-19 CNS was more than 100 µM.
Regarding `O=C(CCC(=O)C1CCC/C1=N/O)Nc1ccc(Cl)cc1` (centres undefined), the TGI in the experiment with OVCAR-5 ovarian, in the experiment with M14 melanoma, with NCI-H226 lung, in the experiment with SF-539 CNS, in the experiment on SK-OV-3 ovarian and in the experiment on A498 renal was more than 100 µM throughout. For the same compound, the TGI in the experiment on SNB-19 CNS is more than 100 µM.
`Cc1cccc2c(O)cc(=O)oc12`: the TGI in the experiment with OVCAR-5 ovarian, in the experiment on M14 melanoma, in the experiment on NCI-H226 lung, in the experiment on SF-539 CNS, in the experiment with SK-OV-3 ovarian and in the experiment with A498 renal was more than 100 µM each time. The TGI in the experiment with RXF 393 renal and with SNB-19 CNS was more than 100 µM throughout.
As to `O=NN(CCCl)C(=O)NC1CCC(CC2CCC(NC(=O)N(CCCl)N=O)CC2)CC1` (centres undefined), the TGI in the experiment on OVCAR-5 ovarian is more than 100 µM; in the experiment on M14 melanoma it was more than 100 µM; with NCI-H226 lung, more than 100 µM; in the experiment with SF-539 CNS it was 25 µM; with SK-OV-3 ovarian it was more than 86.4 µM; in the experiment with A498 renal, 93.9 µM. Further, the values for the TGI in the experiment on RXF 393 renal and with SNB-19 CNS were 44.6 µM and 49.1 µM, respectively.
On to `O=C1/C(=C/c2ccc(Br)cc2)CCC/C1=C\c1ccc(Br)cc1`, for which the TGI with M14 melanoma was 11.5 µM; with SF-539 CNS, 33.8 µM; with SK-OV-3 ovarian, more than 100 µM; with A498 renal it was 16.1 µM; with RXF 393 renal, 18.9 µM; with SNB-19 CNS, 46 µM.
With `CCN(CC)c1ccc(/C=C/C=C2\NC(=O)NC2=O)cc1`, the GI50 was 11.1 µM in the experiment with OVCAR-5 ovarian; 1.56 µM in the experiment on M14 melanoma; 15 µM in the experiment on NCI-H226 lung; 2.33 µM with SF-539 CNS; 7.6 µM in the experiment with SK-OV-3 ovarian; 1.26 µM in the experiment with A498 renal. Also, the figures for the GI50 in the experiment on HS 578T breast, in the experiment with RXF 393 renal and in the experiment with SNB-19 CNS were 3.91 µM, 1.03 µM and 16.1 µM, respectively. Moreover, the TGI was 98.4 µM with OVCAR-5 ovarian; more than 100 µM with M14 melanoma; more than 100 µM in the experiment on NCI-H226 lung; 8.6 µM with SF-539 CNS; more than 100 µM with SK-OV-3 ovarian; 6.55 µM with A498 renal. Further, the TGI was 42.6 µM in the experiment on HS 578T breast, 5.93 µM in the experiment on RXF 393 renal and more than 100 µM in the experiment with SNB-19 CNS.
For the compound `NNC(=O)C(=O)N/N=C(\CCC(=O)Nc1ccc(Cl)cc1)Cc1nc2ccccc2s1`, the TGI is more than 100 µM in the experiment on OVCAR-5 ovarian; 66.5 µM in the experiment with M14 melanoma; more than 100 µM with NCI-H226 lung; 90.4 µM in the experiment on SF-539 CNS; more than 100 µM in the experiment on SK-OV-3 ovarian; more than 100 µM with A498 renal. The TGI in the experiment with RXF 393 renal and in the experiment with SNB-19 CNS was more than 100 µM in each case.
Consider `CC(=O)c1nc2ccccc2n1CC(=O)c1cccc(Cl)c1`, for which the GI50 is 3.42 µM in the experiment on OVCAR-5 ovarian; 0.262 µM in the experiment on M14 melanoma; 3.39 µM with NCI-H226 lung; 0.33 µM in the experiment with SF-539 CNS; 1.27 µM with SK-OV-3 ovarian; 6.52 µM with A498 renal. Besides, the values for the GI50 in the experiment with RXF 393 renal and in the experiment on SNB-19 CNS were 0.264 µM and 0.808 µM, respectively. Also, the TGI was more than 71.4 µM with OVCAR-5 ovarian; more than 100 µM in the experiment with M14 melanoma; more than 44.2 µM with NCI-H226 lung; 2.25 µM in the experiment on SF-539 CNS; more than 100 µM in the experiment on SK-OV-3 ovarian; 88.6 µM in the experiment on A498 renal. The TGI with RXF 393 renal is 0.88 µM; in the experiment with SNB-19 CNS it was more than 100 µM.
On to `Cn1c(=O)c2/c(n(C)c1=O)=N\C=c1\c(=O)n(C)c(=O)n(C)\c1=N\C=2`, for which the TGI in the experiment with OVCAR-5 ovarian, in the experiment with M14 melanoma, in the experiment on SF-539 CNS, in the experiment on A498 renal, in the experiment with RXF 393 renal and in the experiment with SNB-19 CNS was more than 100 µM each time.
For `OCCN1CCN(CC/C=C2/c3ccccc3Sc3ccc(Cl)cc32)CC1`, the TGI is 30.9 µM with OVCAR-5 ovarian; 6.24 µM with M14 melanoma; 28.2 µM in the experiment on NCI-H226 lung; 25.7 µM in the experiment on SF-539 CNS; 29.3 µM with SK-OV-3 ovarian; 28.1 µM with A498 renal. Moreover, the TGI was 26.5 µM in the experiment on RXF 393 renal and 34.9 µM with SNB-19 CNS.
As for `N.N.O=P([O-])([O-])C1(P(=O)([O-])[O-])CCCCCN1.[Pt+2]`, the GI50 was more than 100 µM with M14 melanoma; more than 100 µM with NCI-H226 lung; 31.9 µM with SF-539 CNS; more than 100 µM in the experiment with SK-OV-3 ovarian; more than 100 µM in the experiment on A498 renal; 42.3 µM in the experiment on RXF 393 renal. In addition, the GI50 in the experiment with SNB-19 CNS is more than 100 µM. The TGI with M14 melanoma, in the experiment with NCI-H226 lung, with SF-539 CNS, in the experiment on SK-OV-3 ovarian, in the experiment on A498 renal and in the experiment with RXF 393 renal was more than 100 µM each time. Besides, in the experiment with SNB-19 CNS, the TGI is more than 100 µM.
